# Assay results: PubChem BioAssay AID489024 (Sanford-Burnham Center for Chemical Genomics, 2010)
# Calls of active or inactive are those of the source.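 The calls were made as follows: active = compounds whose mean EC50, the dose giving half the maximal reporter activation, is at or below a set limit; inactive = the rest.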
# Molecular target: CHO-CHOP luciferase reporter, UPR activation, luminescence
# Test: activators of PERK-eIF2a-CHOP UPR arm, confirmation, CHO-CHOP cells, luciferase luminescence (AID 489024);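 also: compounds added alone to reporter cells with no tunicamycin stress co-treatment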
row,SMILES,EC50
1,O=C(/C=C1\NC2(CCCC2)Cc2ccccc21)C(=O)N/N=C/c1ccc(O)c(O)c1,9.4 µM
2,CCc1cccc2c(C(=O)CCl)c[nH]c12,15.7 µM
3,Cc1cc(C)nc(S/C=C/C(=O)c2ccccc2)n1,6.72 µM
4,Cc1ccc(C)c(NC(=S)c2ccccn2)c1,inactive
5,Oc1c(CN2CCc3ccccc3C2)cc(Cl)c2cccnc12,12 µM
6,O=C1NC(=O)N(c2ccccc2)C(=O)/C1=C/C=C/c1ccco1,9.82 µM
7,COc1cccc2sc(Nc3nc(-c4ccccn4)cs3)nc12,1.65 µM
8,COc1ccc(/C=N/Nc2cc(C)nc(-n3nc(C)cc3C)n2)c(OC)c1,7.32 µM
9,Cc1ccc(Sc2c([N+](=O)[O-])c(=O)n(C)c3ccccc23)cc1,> 80 µM (inactive)
10,O=C(N/N=C/c1cccc2cccnc12)c1ccccc1O,18.1 µM
11,O=C(Oc1c(CN2CCOCC2)cc(Cl)c2cccnc12)c1ccc(F)cc1,inactive
12,CCc1cc2c(=O)c(-c3cnn(-c4ccccc4)c3)c(C)oc2cc1OCC(=O)Nc1cccc(C)c1,15.1 µM
13,COc1ccc(/C=C/C(=O)c2ccc([N+](=O)[O-])o2)cc1,6.65 µM
14,O=C(Nc1nc(-c2ccccn2)cs1)c1ccc(Cl)s1,6.11 µM
15,COC(=O)c1cc(=O)n(Cc2ccco2)c(=Nc2ccc(F)c(Cl)c2)s1,16.8 µM
16,Nc1nc(CC(=O)CSc2ccc(Cl)cc2)nc(Nc2ccc(F)cc2)n1,inactive
17,CCOC(=O)C1CCN(Cc2ccc(O)c3ncccc23)CC1,2.74 µM
18,O=C(Nc1ccc(S(=O)(=O)N2CCOCC2)cc1)c1ccc([N+](=O)[O-])o1,0.98 µM
19,C=CCN1C(=O)/C(=C/c2ccc3c(c2)CCCN3CCC)C(=O)NC1=S,14 µM
20,C/C(=N/NC(=O)c1ccc(C(C)(C)C)cc1)c1ccccn1,2.88 µM
21,O=C1C(Cl)=C(NC(=O)c2ccccc2)C(=O)C(Cl)=C1NC(=O)c1ccccc1,> 80 µM (inactive)
22,CCc1nc(N=Nc2c(O)[nH]c3ccccc23)c2c3c(sc2n1)CCC3,13.7 µM

row,SMILES,EC50
1,CCCCCOc1ccc(N2C(=O)CC(N(O)c3ccccc3)C2=O)cc1 (stereo unspecified),12.3 µM
2,C=CCN=c1scc(-c2ccco2)n1/N=C/c1ccc(O)c(O)c1O,inactive
3,CCN(CC)S(=O)(=O)c1ccc(N/N=C(\C)c2ccc3c(c2)OCO3)c([N+](=O)[O-])c1,inactive
4,COCCN1CSC(=S)N(Cc2ccco2)C1,> 80 µM (inactive)
5,COC(=O)c1ccc(C(=O)OC)c(NC(=O)CSc2cccc[n+]2[O-])c1,inactive
6,Cc1ccc(Cc2cnc(NC(=O)/C(C#N)=C/c3ccc(-c4cccc([N+](=O)[O-])c4)o3)s2)cc1,14.7 µM
7,Cc1ccccc1NC(=O)c1ccc(N/N=C/c2ccccc2O)c([N+](=O)[O-])c1,9.06 µM
8,CCSC1(SCC)N=C(N)C2(C#N)C(c3ccc(F)cc3)C12C#N (stereo unspecified),11 µM
9,CCCCCC(=O)Nc1ccc(C(=O)N/N=C/c2ccc([N+](=O)[O-])cc2)cc1,inactive
10,Oc1cc(-c2cccnc2)cc2cccnc12,inactive
11,COc1cccc2sc(N3CCN(c4nc5ccccc5s4)CC3)nc12,13.8 µM
12,Cc1cccc(/C=C/C(=O)c2ccc([N+](=O)[O-])o2)c1,7.44 µM
13,COc1cc(C(=O)Nc2nc(-c3ccc(Cl)cc3)c(C)s2)ccc1OCC(=O)Nc1ccc(F)cc1,13.3 µM
14,COc1cc([C@H]2c3[nH]c4ccccc4c3C[C@H]3C(=O)N4[C@@H](c5cc(OC)c(OC)c(OC)c5)c5[nH]c6ccccc6c5C[C@H]4C(=O)N23)cc(OC)c1OC,11.3 µM
15,Cc1cccc(OCCN2CSC(=S)N(C)C2)c1,> 80 µM (inactive)
16,C/C(CCC12CC3CC(CC(C3)C1)C2)=N\NC(N)=S,16.5 µM
17,COc1ccccc1N1CCN(/N=C/c2ccc(O)c(O)c2)CC1,2.36 µM
18,CCOC(=O)/C(=C\c1ccccc1)C(=O)c1cc(C(C)=O)c(Nc2ccccc2)s1,6.37 µM
19,CCOC(=O)c1c(-c2ccc(-c3ccccc3)cc2)csc1NC(=O)CNCCN(C)C,7.71 µM
20,Cc1c(C(=O)c2no[n+]([O-])c2C(=O)c2cnn(C)c2C)cnn1C,> 80 µM (inactive)
21,Cc1ccccc1CS(=O)(=O)c1ncc(Cl)c(C(=O)Nc2ccc(F)cc2)n1,> 80 µM (inactive)
22,COc1cccc(N=Nc2ccc3cccnc3c2O)c1,10.2 µM

row,SMILES,EC50
1,CCOc1ccccc1-n1c(SCC(=O)Nc2ccc(CC)cc2)nc2n[nH]c(C)c2c1=N,7.22 µM
2,O=c1[nH]c(=S)n(C2CC2)c(O)c1C=Nc1cccc(C(F)(F)F)c1,> 80 µM (inactive)
3,CCOc1ccc(-c2nnc(SCC(=O)Nc3ccc4c(c3)c3ccccc3n4CC)n2N)cc1,12.6 µM
4,N#CC1(C#N)COC23CCCCC2C1(C#N)C(=N)O3 (stereo unspecified),19.3 µM
5,COc1ccccc1N1CCN(Cc2ccc(O)c3ncccc23)CC1,14.7 µM
6,CC1=NOC(=O)/C1=C\c1ccc(-c2ccc(Cl)cc2Cl)o1,13.5 µM
7,O=C(N/N=C/c1ccccn1)c1cc([N+](=O)[O-])cc([N+](=O)[O-])c1,inactive
8,CCN(CC)c1ccc(C=C2C(=O)NC(=S)NC2=O)cc1,11.9 µM
9,CCc1ccccc1NC(=S)N=Nc1c(O)n(C)c2ccc(S(=O)(=O)N3CCOCC3)cc12,> 80 µM (inactive)
10,COCCN=c1scc(-c2cccs2)n1/N=C/c1ccc(O)c(O)c1O,inactive
11,N#CC12COC3(CCCCC3C1(C#N)C#N)OC2=N (stereo unspecified),> 80 µM (inactive)
12,O=C(C#Cc1cccc([N+](=O)[O-])c1)c1ccccc1,8.96 µM
13,CC1=CC(=O)C(C(C)C)=C/C1=N/OC(=O)c1cccc([N+](=O)[O-])c1,> 80 µM (inactive)
14,COc1ccc(/C=C\c2nc(=O)c3ccccc3o2)cc1,8.46 µM
15,O=C(/C=C/c1ccc(O)c(O)c1)OCCc1ccccc1,0.89 µM
16,O=C(CCl)Nc1cccc(CP(=O)(c2ccccc2)c2ccccc2)c1,> 80 µM (inactive)
17,CCCCC(CC)CN=C(N)NC(N)=NCCCCCCN=C(N)NC(N)=NCC(CC)CCCC (stereo unspecified),> 80 µM (inactive)
18,Cc1ccc2nc(-c3ccc(NC(=S)NC4CC(C)(C)NC(C)(C)C4)cc3)sc2c1,6.95 µM
19,CC(=O)N(\C=C/C=C/C=C1\Sc2ccccc2C1=O)c1ccccc1,> 80 µM (inactive)
20,O=C(NCc1ccccc1Cl)c1cccc2c1C(=O)c1ccc(-c3ccc(OC(F)(F)F)cc3)cc1S2(=O)=O,> 80 µM (inactive)
21,O=C1Nc2ccc(Br)cc2/C1=N/N=C/C1=C(N2CCOCC2)C(=C\c2ccccc2)/CC1,> 80 µM (inactive)
22,O=C1NC(=O)C(=Cc2ccc(-c3ccc(Cl)cc3)o2)C(=O)N1,18.2 µM

row,SMILES,EC50
1,Cc1ccc(N2CCN(c3ccc(NCc4nc5ccccc5n4C)cc3)CC2)cc1,inactive
2,Cc1ccc(Cc2cnc(NC(=O)/C(C#N)=C/c3ccc(-c4ccc([N+](=O)[O-])cc4)o3)s2)cc1,inactive
3,CCCn1c(CC)nc([N+](=O)[O-])c1S(=O)(=O)c1ccccc1,> 80 µM (inactive)
4,Cc1ccc(Nc2nc(-c3ccc(O)c(O)c3)cs2)nc1,1.56 µM
5,COc1ccc(O)c(/C=N/Nc2nc(Nc3ccccc3)nc(-n3nc(C)cc3C)n2)c1,5.05 µM
6,COc1ccccc1NC(=O)c1cnc(SCC(=O)NCC2CCCO2)n(C)c1=O (stereo unspecified),14.4 µM
7,Cc1cc(C)cc(N2C(=O)NC(=O)/C(=C\c3cccn3-c3ccccc3)C2=O)c1,13.9 µM
8,CN=c1scc(-c2ccco2)n1/N=C/c1ccc(O)c(O)c1,1.23 µM
9,COc1cc(/C=C2\COC/C(=C\c3ccc(O)c(OC)c3)C2=O)ccc1O,6.34 µM
10,CN1CCN(c2ccc(NC(=O)c3ccc([N+](=O)[O-])o3)cc2Cl)CC1,0.42 µM
11,COc1cc(/C=C/C(=O)N2C(=O)c3cccc(N)c3C2=O)cc(OC)c1OC,> 80 µM (inactive)
12,CC(C)(C)C(=O)NC(=S)NNC(=O)c1ccc(-c2ccccc2)cc1,12.9 µM
13,O=S1(=O)Nc2c(ccc3cccnc23)-c2ccccc21,3.42 µM
14,Cc1cc(O)c(-c2cc(O)c(C)cc2O)cc1O,> 80 µM (inactive)
15,Cc1coc2c1C(=O)C(=O)c1c-2ccc2c(C)cccc12,> 80 µM (inactive)
16,Oc1c(N=Nc2ccccn2)ccc2ccccc12,6.46 µM
17,O=C1/C(=C/c2ccc(N3CCOCC3)o2)SC(=Nc2ccccc2)N1CCc1c[nH]c2ccccc12,16.6 µM
18,Cc1ccnc(Nc2nc(-c3ccc(O)c(O)c3)cs2)c1,1.34 µM
19,CS(=O)(=O)c1nc(-c2ccc(Br)cc2)cc(-c2ccccc2)c1C#N,5.12 µM
20,N#Cc1cc([N+](=O)[O-])c(-n2nnc3ccccc32)c([N+](=O)[O-])c1,18.5 µM
21,COc1ccc(N=Nc2ccc(O)c3ncccc23)cc1,7.89 µM
22,COC(=O)c1c(NC(=O)c2ccc([N+](=O)[O-])o2)sc2c1CCN(C(C)C)C2,1.76 µM

row,SMILES,EC50
1,COc1ccc(/C=C/c2ccc3cccc(O)c3n2)c(OC)c1OC,8.23 µM
2,CC1(C)CC(=O)C(=Cc2cn(-c3ccccc3)nc2-c2ccc(Cl)cc2)C(=O)C1,6.07 µM
3,CN1C(=O)NC(=O)/C(=C\C=C\c2ccccc2[N+](=O)[O-])C1=O,10.4 µM
4,COc1ccc(C2Nc3ccc4ccccc4c3-c3c2c(=O)oc2ccccc32)cc1 (stereo unspecified),> 80 µM (inactive)
5,Cc1ccc(CN2CCN(/N=C/c3ccc(O)c(O)c3)CC2)cc1,3.64 µM
6,O=C(Nc1nc(-c2ccccn2)cs1)c1ccc(Br)s1,8.23 µM
7,Cc1ccc(C)c(NC(=O)/C(C#N)=C/c2cn(CC(=O)NCc3ccco3)c3ccccc23)c1,> 80 µM (inactive)
8,CN(C)CC(CCC(CN(C)C)C(O)(c1ccccc1)c1ccccc1)C(O)(c1ccccc1)c1ccccc1 (stereo unspecified),7.9 µM
9,CC1=CC(C)(C)Nc2ccc(OC(=O)CN3C(=O)CCC3=O)cc21,9.58 µM
10,CCOC(=O)c1sc(NC(=S)NC(=O)c2ccccc2)c(C(=O)OCC)c1C,> 80 µM (inactive)
11,COc1ccc(C(=O)C(CN2CCCC2)c2ccccc2)cc1 (stereo unspecified),13.9 µM
12,Oc1ccc(CN2CCN(Cc3ccccc3)CC2)c2cccnc12,inactive
13,O=C(NC1CCCC1)C(c1ccc(F)cc1)N(Cc1ccc(F)cc1)C(=O)CCl (stereo unspecified),9.26 µM
14,O=C(Nc1ccc(NC(=O)c2sc3ccccc3c2Cl)cc1Cl)c1ccco1,inactive
15,Oc1ccc(CN2CCN(c3ccccc3)CC2)c2cccnc12,inactive
16,C/C(=N\NC(=O)C(C)Oc1ccc([N+](=O)[O-])cc1)c1ccccn1 (stereo unspecified),10.1 µM
17,CCOc1cc(NC(=O)CCl)c(OCC)cc1NC(=O)CCl,inactive
18,O=Cc1ccc(O)c2ncccc12,10.3 µM
